The results in this text go back to publication PMC8041284, “Tunable Methacrylamides for Covalent Ligand Directed Release Chemistry” (Journal of the American Chemical Society, 2021).

This test has as its target BTK (Homo sapiens, UniProt Q06187). In words: biochemical.
The mark [1] stands for this setting: read-out: BTK inhibition (%), 0.75 uM BTK, […] probe 3l, 15 min preincubation.

Molecules are shown by their SMILES. Where two headings read alike, the source gives them in different places.

BTK, sequence (Q06187 402-655 limits assumed): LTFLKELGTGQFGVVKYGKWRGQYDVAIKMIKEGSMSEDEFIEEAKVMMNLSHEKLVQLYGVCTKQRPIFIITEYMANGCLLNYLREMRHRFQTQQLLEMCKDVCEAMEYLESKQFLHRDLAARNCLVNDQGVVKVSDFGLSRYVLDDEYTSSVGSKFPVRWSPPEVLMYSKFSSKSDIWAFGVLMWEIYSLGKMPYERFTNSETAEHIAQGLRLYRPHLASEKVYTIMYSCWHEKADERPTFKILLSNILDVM

Usually inhibition stands for the relative decrease from the control value, in per cent. As for `COc1ccc(-c2cc3c(C)nc(N)nc3n(C3CCC(OCCO)CC3)c2=O)cn1` (centres unmarked) [PCM-0095467], the inhibition at 10 µM under setting [1] was -9.7%. On the same count and under the same terms, the value for `CC(C)CCN1c2nc(Nc3cc(F)c(O)c(F)c3)ncc2N(C)C(=O)C1C` (centres unmarked) [PCM-0095469] was 48.3%; that for `Cc1c(C(=O)NN2CCCCC2)nn(-c2ccc(Cl)cc2Cl)c1-c1ccc(Cl)cc1` [PCM-0095470] was 42%; that for `Cn1nc(C(C)(C)C)cc1C(=O)N[C@@H](Cc1cccc(Cl)c1)C(=O)NCC#N` [PCM-0095472] was -18.7%. Still for that read-out and setting: the value for `CCS(=O)(=O)N1CC(CC#N)(n2cc(-c3ncnc4[nH]ccc34)cn2)C1` [PCM-0095473] was -20%. Same read-out and setting: the value for `CC(C)C[C@H](NC(=O)[C@H](CCc1ccccc1)NC(=O)CN1CCOCC1)C(=O)N[C@@H](Cc1ccccc1)C(=O)N[C@@H](CC(C)C)C(=O)[C@@]1(C)CO1` [PCM-0095475] was -17.1%; that for `COc1ccc2c(c1)=C(CC(=O)N1CCOCC1)C(C)(C(=O)c1ccc(Cl)cc1)N=2` (centres unmarked) [PCM-0095476] was -2.3%. On to `S=C=Nc1cccc(NC(=S)NCCCCNC(=S)Nc2cccc(N=C=S)c2)c1` [PCM-0095477], for which the inhibition at 10 µM (read-out: BTK inhibition (%)) was 38.9%. Turning to `Cc1ncc(-c2ccnc(Nc3ccc(S(C)(=O)=O)cc3)n2)n1C(C)C` [PCM-0095478], the inhibition at 10 µM under setting [1] came to 48.3%. On the same count and under the same terms, the value for `Cc1cc(CN2CCN(c3c(Br)cnc4nc(-c5ccc(N6CCN(C)CC6)cc5)[nH]c34)CC2)no1` [PCM-0095479] was 4.3%; that for `Nc1nc(NCCNc2ncc(-n3ccnc3)c(-c3ccc(Cl)cc3Cl)n2)ccc1[N+](=O)[O-]` [PCM-0095481] was 20.7%. Take `COc1cccc2cc(-c3nc(C4CCC(C(=O)O)CC4)n4ncnc(N)c34)[nH]c12` (centres unmarked) [PCM-0095482]: under setting [1], the inhibition at 10 µM amounted to 28.3%. Same read-out and setting: the value for `Cc1ccc(NC(=O)c2cccc(C(C)(C)C#N)c2)cc1Nc1ccc2ncn(C)c(=O)c2c1` [PCM-0095483] was 44.1%; that for `COc1ccc2c(Oc3ccc(NC(=O)c4c(C)n(CC(C)(C)O)n(-c5ccccc5)c4=O)nc3)ccnc2c1` [PCM-0095484] was 12.4%; that for `Cc1cnc(NC(=O)Nc2cc(Br)c(C)cc2OC[C@@H]2CNCCO2)cn1` [PCM-0095485] was 7.6%. Still for that read-out and setting: the value for `COc1cc(F)c(C(C)C)cc1-c1ccc(C(F)(F)F)cc1CN1C(=O)O[C@H](c2cc(C(F)(F)F)cc(C(F)(F)F)c2)[C@@H]1C` [PCM-0095486] was 22.6%.

In the case of `CN1CCc2c(c3ccccc3n2Cc2ccc(C(=O)NO)cc2)C1` [PCM-0095487], the inhibition at 10 µM under setting [1] is 0.8%.

In the case of `COc1ccc(-c2ccc3ncc4c(c3c2)n(-c2ccc(N3CCNCC3)c(C(F)(F)F)c2)c(=O)n4C)cn1` [PCM-0095488], the inhibition at 10 µM under setting [1] came to 0.7%. On the same count and under the same terms, the value for `O=C(NC1CCOCC1)c1ccc(-c2cc(-c3cn[nH]c3-c3ccccn3)ccn2)cc1` [PCM-0095490] was 1.6%. Still for that read-out and setting: the value for `COc1cc(OC)c(NC(=O)Nc2cc(C)on2)cc1Cl` [PCM-0095491] was 10.9%. With `CNC(=O)c1nn(C)c2c1C(C)(C)Cc1cnc(Nc3ccc(N4CCN(C)CC4)cc3)nc1-2` [PCM-0095492], the inhibition at 10 µM under setting [1] amounted to 44.1%.

Take `O=C(O)Cc1cccc(OCCCN(Cc2cccc(C(F)(F)F)c2Cl)CC(c2ccccc2)c2ccccc2)c1` [PCM-0095493]: the inhibition at 10 µM under setting [1] was determined as 23.4%.

For `Cc1cc(Nc2ncnc3ccc(-c4ccc(CNCCS(C)(=O)=O)o4)cc23)ccc1Oc1ccn2ncnc2c1` [PCM-0095494], the inhibition at 10 µM under setting [1] is -21.4%. `NC(=O)c1cccc(-c2cccc(OC(=O)NC3CCCCC3)c2)c1` [PCM-0095495]: the inhibition at 10 µM under setting [1] is -6.2%. Regarding `COc1ccc(NS(=O)(=O)c2sc3ccc(Cl)cc3c2C)cc1N1CCNCC1` [PCM-0095497], the inhibition at 10 µM under setting [1] is -35%.

Turning to `N#C[C@@H]1CCCN1C(=O)CNC12CC3CC(CC(O)(C3)C1)C2` [PCM-0095499], under setting [1], the inhibition at 10 µM was found to be 1.6%.

Take `CC(C)n1cnc2c(NCCc3ccc(O)cc3)nc(-c3csc4ccccc34)nc21` [PCM-0095500]: under setting [1], the inhibition at 10 µM came to 34.2%.

In the case of `CN1CCN(C2CCN(C(=O)Nc3cc(Oc4ccc(NC(=O)C5(C(=O)Nc6ccc(F)cc6)CC5)c(F)c4)ccn3)CC2)CC1` [PCM-0095502], the inhibition at 10 µM under setting [1] came to 17.2%. `NCCCCCNCC12CC3CC(CC(C3)C1)C2` [PCM-0095503]: the inhibition at 10 µM under setting [1] was -19.5%.

For the compound `Cc1nc(C#Cc2ccnc(Cl)c2)c(C)n1-c1ccc(OC(F)(F)F)cc1` [PCM-0095504], the inhibition at 10 µM under setting [1] was -55.3%. Turning to `O=C(Nc1cccc(Cl)c1)c1ccccn1` [PCM-0095506], under setting [1], the inhibition at 10 µM was 5.4%.

For the compound `Cc1ccc(S(=O)(=O)n2c(N)nc3ccccc32)cc1` [PCM-0095508], the inhibition at 10 µM under setting [1] was -3.1%. For the compound `O=C(Nc1cc(C(F)(F)F)cc(C(F)(F)F)c1)c1cc(Cl)ccc1O` [PCM-0095509], the inhibition at 10 µM under setting [1] turned out to be 42.8%. Still for that read-out and setting: the value for `CN1CCN(c2nc3ccccc3nc2Cl)CC1` [PCM-0095510] was -6.2%. Still for that read-out and setting: the value for `COc1ccnc2[nH]cc(C(=O)C(=O)N3CCN(C(=O)c4ccccc4)C[C@H]3C)c12` [PCM-0095512] was 0.7%; that for `C[C@@H]1COC(Nc2ccc3ncnc(Nc4ccc(OCc5nccs5)c(Cl)c4)c3c2)=N1` [PCM-0095513] was 17.2%.

`CNC(=O)c1cc(Oc2ccc(NC(=O)Nc3cc(C(C)(C)C)nn3-c3ccc4ncccc4c3)c(F)c2)ccn1` [PCM-0095514]: the inhibition at 10 µM under setting [1] was 98.6%.

For `NC1(Cc2ccc(Cl)cc2)CCN(c2ncnc3[nH]ccc23)CC1` [PCM-0095516], the inhibition at 10 µM under setting [1] amounted to 13.8%. Same read-out and setting: the value for `COc1ccc(-c2nc(N3CCOCC3)c3sc(CN(C)c4ncc(C(=O)NO)cn4)cc3n2)cn1` [PCM-0095517] was 15.2%.

On to `Cc1nc(NC(=O)N2CCC[C@H]2C(N)=O)sc1-c1csc(C(C)(C)C)n1` [PCM-0095518], for which the inhibition at 10 µM under setting [1] came out at 7.6%. Still for that read-out and setting: the value for `Cc1ccc([C@@H]2O[C@H](CO)[C@@H](O)[C@H](O)[C@H]2O)cc1Cc1ccc(-c2ccc(F)cc2)s1` [PCM-0095519] was 7.6%; that for `Cn1cc(-c2ccc3ncc(Cc4ccc5ncccc5c4)n3n2)cn1` [PCM-0095521] was -16.6%; that for `O=c1cc(N2CCOCC2)oc2c(-c3cccc4c3sc3ccccc34)cccc12` [PCM-0095522] was -13.6%. Same read-out and setting: the value for `CCc1cc2c(cc1N1CCC(N3CCOCC3)CC1)C(C)(C)c1[nH]c3cc(C#N)ccc3c1C2=O` [PCM-0095523] was 11.7%. On to `Cn1cnc(=N)c2[nH]cnc21` [PCM-0095527], for which, under setting [1], the inhibition at 10 µM is -4.8%.

For `COc1ncc(-c2ccc3nccc(-c4ccnnc4)c3c2)cc1NS(=O)(=O)c1ccc(F)cc1F` [PCM-0095528], the inhibition at 10 µM under setting [1] is -18.6%. As for `CCc1cnn2c(NCc3ccc[n+]([O-])c3)cc(N3CCCC[C@H]3CCO)nc12` [PCM-0095529], the inhibition at 10 µM under setting [1] was -7.6%.

With `CC(C)N(CC[C@H](c1ccccc1)c1cc(CO)ccc1O)C(C)C` [PCM-0095530], under setting [1], the inhibition at 10 µM was determined as 3.9%. On the same count and under the same terms, the value for `NS(=O)(=O)c1ccc(NC(=O)Nc2ccc(F)cc2)cc1` [PCM-0095531] was -15.6%.

For `COc1cc(/C=C/C(=O)N2CCN(CC(=O)N3CCCC3)CC2)cc(OC)c1OC` [PCM-0095532], the inhibition at 10 µM under setting [1] was 0%. Same read-out and setting: the value for `COc1cc2ncnc(Nc3ccc(O)c(Br)c3)c2cc1OC` [PCM-0095533] was 33.8%. Same read-out and setting: the value for `CCOc1nc2cccc(C(=O)O)c2n1Cc1ccc(-c2ccccc2-c2noc(=O)[nH]2)cc1` [PCM-0095534] was -3.1%; that for `Cn1c(=O)cc(N2CCC[C@@H](N)C2)n(Cc2ccccc2C#N)c1=O` [PCM-0095535] was -11%; that for `CCCCCCCCOc1ccccc1C(=O)Nc1ccc(C(=O)OCC[N+](C)(CC)CC)cc1` [PCM-0095536] was -64.6%. Still for that read-out and setting: the value for `Nc1nc(N)c2nc(-c3cccc(O)c3)cnc2n1` [PCM-0095537] was -35.7%. On to `O=C1c2cccc3c2[C@H](CCC3)CN1[C@@H]1CN2CCC1CC2` [PCM-0095539], for which the inhibition at 10 µM under setting [1] was found to be 4.3%.

For `O=C1Nc2ccc(I)cc2/C1=C/c1cc(Br)c(O)c(Br)c1` [PCM-0095540], the inhibition at 10 µM under setting [1] is 52.4%. Take `CN(C)C(=O)COC(=O)Cc1ccc(OC(=O)c2ccc(N=C(N)N)cc2)cc1` [PCM-0095541]: under setting [1], the inhibition at 10 µM was -6.2%. The same measure, in the same setting: the value for `Cc1cncc(CN2CCC(=C3c4ccc(Cl)cc4CCc4cccnc43)CC2)c1` [PCM-0095542] was -7.6%; that for `COCCCN1CCC(NC(=O)c2cc(Cl)c(N)c3c2OCC3)CC1` [PCM-0095543] was -16.3%; that for `CC1=C(C(=O)OC(C)C)C(c2cccc([N+](=O)[O-])c2)C(C(=O)OC2CN(C(c3ccccc3)c3ccccc3)C2)=C(N)N1` (centres unmarked) [PCM-0095544] was 70%. Still for that read-out and setting: the value for `N[C@@H]1CCCCN(c2c(F)cc3c(=O)c(C(=O)O)cn(C4CC4)c3c2Cl)C1` [PCM-0095545] was -15.3%; that for `CN1C[C@@H]2C[C@H]1CN2c1cc2c(cc1F)c(=O)c(C(=O)O)cn2C1CC1` [PCM-0095547] was 10.2%. Still for that read-out and setting: the value for `Cc1cccc(C(C)c2cnc[nH]2)c1C` (centres unmarked) [PCM-0095548] was -14.8%; that for `O=C(O)CCCc1ccccc1` [PCM-0095550] was -12.4%; that for `Oc1ccc(OC2CCCCO2)cc1` (centres unmarked) [PCM-0095551] was 11.7%. As for `CC(C)(C)/[N+]([O-])=C/c1ccc(S(=O)(=O)O)cc1S(=O)(=O)O` [PCM-0095556], under setting [1], the inhibition at 10 µM worked out at 7.7%. As for `Nc1nc(CC(=O)Nc2ccc(CCNC[C@H](O)c3ccccc3)cc2)cs1` [PCM-0095557], the inhibition at 10 µM under setting [1] turned out to be 3.9%. On the same count and under the same terms, the value for `NC[C@H](CC(=O)O)c1ccc(Cl)cc1` [PCM-0095558] was -12.8%; that for `Cc1cc(C#N)cc(C)c1Oc1nc(Nc2ccc(C#N)cc2)nc(N)c1Br` [PCM-0095562] was 36.6%; that for `CC(=O)O[C@]1(C(C)=O)CC[C@H]2[C@@H]3CCC4=CC(=O)CCC4=C3[C@@H](c3ccc(N(C)C)cc3)C[C@@]21C` [PCM-0095563] was 38.9%.
